# Read-outs that look alike come from different tables or passages of the source.
# Experiments:
# HIV-1 strain LAI = experiment: Cellular anti-HIV assay in MT4 cells (MTT), wild type laboratory strain; assay type: cell-based; conditions: read-out: EC50 value against HIV-1 strain LAI
# Protocol: The compounds of the present invention were examined for anti-viral activity in a cellular assay. […] The cellular assay was performed according to the following procedure.
# Cellular Assay Experimental Method:
# HIV- or mock-infected MT4 cells were incubated for five days in the presence of various concentrations of the inhibitor. At the end of the incubation period, all HIV-infected cells have been killed by the replicating virus in the control cultures in the absence of any inhibitor. Cell viability is measured by measuring the concentration of MTT, a yellow, water soluble tetrazolium dye that is converted to a purple, water insoluble formazan in the mitochondria of living cells only. Upon solubilization of the resulting formazan crystals with isopropanol, the absorbance of the solution is monitored at 540 nm. The values correlate directly to the number of living cells remaining in the culture at the completion of the five day incubation. The inhibitory activity of the compound was monitored on the virus-infected cells and was expressed as EC50 and EC90. These values represent the amount of the compound required to protect 50% and 90%, respectively, of the cells from the cytopathogenic effect of the virus. The toxicity of the compound was measured on the mock-infected cells and was expressed as CC50, which represents the concentration of compound required to inhibit the growth of the cells by 50%. The selectivity index (SI) (ratio CC50/EC50) is an indication of the selectivity of the anti-HIV activity of the inhibitor.
# virus strain F (R13025) = experiment: microbe, parasite or virus in culture; assay type: cell-based, HIV; conditions: FR=EC50(mutant strain)/EC50(HIV-1 strain LAI); strain F
# Method in brief: (§1)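 HIV-infected MT4 cells were incubated five days with inhibitor, and viability was read by MTT reduction at 540 nm. EC50/EC90 are the concentrations protecting 50%/90% of cells from viral cytopathic effect. Fold resistance is EC50 against the clinical isolate divided by EC50 against HIV-1 LAI.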
# virus strain S (R13080) = experiment: microbe, parasite or virus in culture; assay type: cell-based, HIV; conditions: FR=EC50(mutant strain)/EC50(HIV-1 strain LAI); strain S
# Method in brief: as §1
# [1] = test system: clinically isolated HIV strain A; experiment: Antiviral spectrum, cellular assay (fold resistance), strain A; assay type: cell-based; conditions: FR=EC50(mutant strain)/EC50(HIV-1 strain LAI)
# Method in brief: (§2)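 MT4 cells infected with clinical protease-inhibitor-resistant HIV isolates, cultured 5 days with compound. Cell protection read by MTT formazan absorbance at 540 nm to give EC50. Fold resistance = EC50(mutant)/EC50(HIV-1 LAI).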
# [2] = test system: clinically isolated HIV strain B; experiment: Antiviral spectrum, cellular assay (fold resistance), strain B; assay type: cell-based; conditions: FR=EC50(mutant strain)/EC50(HIV-1 strain LAI)
# Method in brief: as §2
# [3] = test system: clinically isolated HIV strain C; experiment: Antiviral spectrum, cellular assay (fold resistance), strain C; assay type: cell-based; conditions: FR=EC50(mutant strain)/EC50(HIV-1 strain LAI)
# Method in brief: as §2
# [4] = test system: clinically isolated HIV strain D; experiment: Antiviral spectrum, cellular assay (fold resistance), strain D; assay type: cell-based; conditions: FR=EC50(mutant strain)/EC50(HIV-1 strain LAI)
# Method in brief: as §2
# [5] = test system: clinically isolated HIV strain E; experiment: Antiviral spectrum, cellular assay (fold resistance), strain E; assay type: cell-based; conditions: FR=EC50(mutant strain)/EC50(HIV-1 strain LAI)
# Method in brief: as §2
# [6] = test system: clinically isolated HIV strain G; experiment: Antiviral spectrum, cellular assay (fold resistance), strain G; assay type: cell-based; conditions: FR=EC50(mutant strain)/EC50(HIV-1 strain LAI)
# Method in brief: as §2
# [7] = test system: clinically isolated HIV strain H; assay type: cell-based; conditions: FR=EC50(mutant strain)/EC50(HIV-1 strain LAI)
# Method in brief: as §1
# [8] = test system: clinically isolated HIV strain I; assay type: cell-based; conditions: FR=EC50(mutant strain)/EC50(HIV-1 strain LAI)
# Method in brief: as §1
# [9] = test system: clinically isolated HIV strain J; assay type: cell-based; conditions: FR=EC50(mutant strain)/EC50(HIV-1 strain LAI)
# Method in brief: as §1
# [10] = test system: clinically isolated HIV strain O; assay type: cell-based; conditions: FR=EC50(mutant strain)/EC50(HIV-1 strain LAI)
# Method in brief: as §1
# [11] = test system: clinically isolated HIV strain T; assay type: cell-based; conditions: FR=EC50(mutant strain)/EC50(HIV-1 strain LAI)
# Method in brief: as §1
# [12] = test system: clinically isolated HIV strain K; experiment: Antiviral spectrum, cellular assay (fold resistance), strain K; assay type: cell-based; conditions: FR=EC50(mutant strain)/EC50(HIV-1 strain LAI)
# Method in brief: as §2
# [13] = test system: clinically isolated HIV strain L; experiment: Antiviral spectrum, cellular assay (fold resistance), strain L; assay type: cell-based; conditions: FR=EC50(mutant strain)/EC50(HIV-1 strain LAI)
# Method in brief: as §2
# [14] = test system: clinically isolated HIV strain M; experiment: Antiviral spectrum, cellular assay (fold resistance), strain M; assay type: cell-based; conditions: FR=EC50(mutant strain)/EC50(HIV-1 strain LAI)
# Method in brief: as §2
# [15] = test system: clinically isolated HIV strain N; experiment: Antiviral spectrum, cellular assay (fold resistance), strain N; assay type: cell-based; conditions: FR=EC50(mutant strain)/EC50(HIV-1 strain LAI)
# Method in brief: as §2
# [16] = test system: clinically isolated HIV strain P; experiment: Antiviral spectrum, cellular assay (fold resistance), strain P; assay type: cell-based; conditions: FR=EC50(mutant strain)/EC50(HIV-1 strain LAI)
# Method in brief: as §2
# [17] = test system: clinically isolated HIV strain Q; experiment: Antiviral spectrum, cellular assay (fold resistance), strain Q; assay type: cell-based; conditions: FR=EC50(mutant strain)/EC50(HIV-1 strain LAI)
# Method in brief: as §2
# [18] = test system: clinically isolated HIV strain R; experiment: Antiviral spectrum, cellular assay (fold resistance), strain R; assay type: cell-based; conditions: FR=EC50(mutant strain)/EC50(HIV-1 strain LAI)
# Method in brief: as §2
# [19] = Pharmacokinetics after oral dosing in rats (LC-MS); assay type: in vivo, Whistar rats; conditions: for concentration at 3 h / Cmax: Wistar, blood, 10 mg/kg, or, rat, 10 mpk, DMSO; for concentration at 3 h: oral, read-out: C3hours; for Cmax: po
# Protocol: (§3) The pharmacokinetic properties of compounds 20, 88 and 90 were tested on rats and dogs. The compounds were evaluated in Whistar rats, source Iffa Credo, weighing approximately 350 g. Before dosing the animals were fasted overnight (approximately 12 h fasting period). The compounds were dissolved in DMSO. The results represented in the table concern the results from the oral dosing of the compounds. Blood was sampled at 30 min, 1 h, 2 h, 3 h, no pre-dose sample was taken. The amount of the compound in the biological sample was determined using LC-MS. In the table below “or” means oral dosing, “mpk” means mg per kilogram.
# [20] = Pharmacokinetics after oral dosing in dogs (LC-MS); assay type: in vivo; conditions: blood, 10 mg/kg, or, dog, 10 mpk
# Protocol: as §3
# [21] = Human immunodeficiency virus 1, 120 h, MT4 cells, five days, MTT
SMILES,EC50 (HIV-1 strain LAI; [21]) [nM],"fold resistance (FR), strain F (virus strain F (R13025))","fold resistance (FR), strain S (virus strain S (R13080))","fold resistance (FR), strain A [1]","fold resistance (FR), strain B [2]","fold resistance (FR), strain C [3]","fold resistance (FR), strain D [4]","fold resistance (FR), strain E [5]","fold resistance (FR), strain G [6]","fold resistance (FR), strain H [7]","fold resistance (FR), strain I [8]","fold resistance (FR), strain J [9]","fold resistance (FR), strain O [10]","fold resistance (FR), strain T [11]","fold resistance (FR), strain K [12]","fold resistance (FR), strain L [13]","fold resistance (FR), strain M [14]","fold resistance (FR), strain N [15]","fold resistance (FR), strain P [16]","fold resistance (FR), strain Q [17]",other results
CC(C)CN(CC(O)C(Cc1ccccc1)NC(=O)OC1COC2OCCC12)S(=O)(=O)c1ccc2nc(NC(=O)CN3CCCC3)sc2c1 (stereo not drawn) [Compound 12],< 50,0.4,0.8,0.3,0.4,0.3,0.4,0.4,0.2,0.4,0.4,0.3,0.4,5.9,0.2,0.1,0.2,0.4,0.1,0.4,"fold resistance (FR), strain R [18]: 0.4"
CC(C)CN(C[C@@H](O)[C@H](Cc1ccccc1)NC(=O)O[C@H]1CO[C@H]2OCC[C@H]21)S(=O)(=O)c1ccc2nc(NCCN(C)C)sc2c1 [Compound 16],< 50,0.4,1.6,0.2,0.3,0.2,0.2,0.3,0.2,0.3,0.3,0.3,0.3,6.6,0.2,0.1,0.2,0.4,0.1,0.2,"fold resistance (FR), strain R [18]: 0.2"
CC(C)CN(C[C@@H](O)[C@H](Cc1ccccc1)NC(=O)O[C@H]1CCOC1)S(=O)(=O)c1ccc2nc(NCCN(C)C)sc2c1 [Compound 90],< 50,28.8,128.8,–,–,–,–,–,–,–,–,–,–,–,–,–,–,–,–,–,concentration at 3 h [19]: 684 ng/mL; Cmax [19]: 893 ng/mL; Cmax ([20]; DMSO): 550 ng/mL
CC(C)CN(C[C@@H](O)[C@H](Cc1ccccc1)NC(=O)O[C@H]1CO[C@H]2OCC[C@H]21)S(=O)(=O)c1ccc2nc(NCCN3CCCC3)sc2c1 [Compound 20],–,0.5,0.5,–,–,–,–,–,–,0.5,0.4,0.2,0.2,2.6,–,–,–,–,–,–,"EC50 (HIV-1 strain LAI; Human immunodeficiency virus 1, MT4, 120 h): 50 to 500 nM; concentration at 3 h [19]: 401 ng/mL; Cmax [19]: 1420 ng/mL; plasma level ([19]; oral dosing, comment on Table 8 (rats and dogs)): high; Cmax ([20]; DMSO): 713 ng/mL"
Cc1cc(N)ccc1C(=O)NC(Cc1ccccc1)C(O)CN(CC(C)C)S(=O)(=O)c1ccc2nc(NC(=O)CN(C)C)sc2c1 (stereo not drawn) [Compound 43],< 50,1.1,3.0,1.1,0.9,1.1,0.9,0.7,0.6,1.3,1.5,3.4,2.4,31.4,0.4,1.0,1.2,1.2,0.2,1.1,"fold resistance (FR), strain R [18]: 1.0"
CC(C)CN(C[C@@H](O)[C@H](Cc1ccccc1)NC(=O)O[C@H]1CO[C@H]2OCC[C@H]21)S(=O)(=O)c1ccc2nc(N(C)CCCN(C)C)sc2c1 [Compound 88],< 50,8.7,26.3,–,–,–,–,–,–,–,–,–,–,–,–,–,–,–,–,–,concentration at 3 h [19]: 225 ng/mL; Cmax [19]: 254 ng/mL; Cmax ([20]; (PEG)): 379 ng/mL
CCOC(=O)Nc1nc2ccc(S(=O)(=O)N(CC(C)C)CC(O)C(Cc3ccccc3)NC(=O)OC3COC4OCCC34)cc2s1 (stereo not drawn) [Compound 2],< 50,1.1,1.7,0.3,0.2,0.2,0.3,0.4,0.2,1.0,0.7,0.4,0.8,29.6,0.2,0.2,0.3,1.1,0.2,0.3,"fold resistance (FR), strain R [18]: 0.3"

# Reference: US7659404B2, “Broad spectrum 2-(substituted-amino)-benzothiazole sulfonamide HIV protease inhibitors” (Tibotec Pharmaceuticals Ltd., priority 2001, dated 2010)
